According to PubChem BioAssay (NCI):
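Cultured in 96-well plates, cells were exposed to test compound for 48 hours across five concentrations. GI50: concentration for 50% inhibition of growth. TGI marks complete inhibition of growth.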

Tests used:
Experiment in all cases: DTP human tumour cell line panel, 48 h
[1] = tested on: A498 renal
[2] = tested on: HCT-15 colon
[3] = tested on: HOP-62 NSCLC
[4] = tested on: IGROV1 ovarian
[5] = tested on: NCI-H460 lung
[6] = tested on: OVCAR-5 ovarian
[7] = tested on: SK-OV-3 ovarian
[8] = tested on: SNB-75 CNS
[9] = tested on: UACC-62 melanoma
[10] = tested on: LOX IMVI melanoma

SMILES	TGI [1] [µM]	TGI [2] [µM]	TGI [3] [µM]	TGI [4] [µM]	TGI [5] [µM]	TGI [6] [µM]	TGI [7] [µM]	TGI [8] [µM]	TGI [9] [µM]	TGI [10] [µM]	GI50 [1] [µM]	GI50 [3] [µM]	GI50 [4] [µM]	GI50 [5] [µM]	GI50 [6] [µM]	GI50 [7] [µM]	GI50 [9] [µM]	GI50 [2] [µM]	GI50 [10] [µM]	GI50 [8] [µM]
O=C1CCCC2COc3ccc(O)c1c32 (stereo not given)	> 100	> 100	> 100	> 100	> 100	> 100	> 100	> 100	> 100											
Cc1ccc(NC(=O)NC23CC4CC(CC(F)(C4)C2)C3)cc1	> 100		> 100	> 100	> 100	> 100	> 100	87.1	> 100	> 100										
OCC1CC2CC1C1(C2)OCCO1 (stereo not given)	> 100		> 100	> 100	> 100	> 100	> 100	> 100	> 100	> 100										
COc1ccc2c(c1)[n+]([O-])c(-c1ccc(Cl)c(Cl)c1)c(N)[n+]2[O-]	> 100	> 100	> 100	93.2	> 100	> 100	> 100	> 100												
Cc1cc(Br)cc(C)c1NC(=O)C(=O)C(C(=O)c1ccc(Cl)c(Cl)c1)C1OC(=O)c2ccccc21 (stereo not given)	> 100	> 100	> 100	> 100	> 100	> 100	> 100		> 100	> 100										
O=C1C=Cc2noc3cccc1c23	27.5	10.8		29.4		28.4	32.1	25.8	13.4	9.51										
ClCc1ccc(Cn2cnc3ncnc(Cl)c32)cc1	3.37		3.16	31.1	4.31	19.7	23.3		12		1.81	1.78	7.61	1.78	6.26	11.3	2.5			
CC(C)S(=O)(=O)n1c(N)nc2ccc(/C(=N/O)c3ccccc3)cc21	31.7	79.3	40.8	48	> 100	58.7	83	47.7	81.8											
CN(C)/C(=N/C(=O)Nc1ccccc1)SCc1ccccc1	> 100	> 100	> 100	> 100		> 100	> 100	> 100	> 100	> 100										
Cc1cc(C(=O)NCCN(C)C)c2nc3ccccc3nc2c1	16.4	27.6	10.4	> 29.5		15.2	> 46	48.3	18.7	9.17										
C=C1C(=O)O[C@H]2[C@H](OC(C)=O)[C@@H](C)CCC/C(C)=C/CC[C@]3(CO3)[C@H](O)C[C@@H]12	33.4	3.76		12.8	17.5	26.5	21.7	22.9	25.3	4.75	16.9		3.37	5.35	13.2	9.12	12.7	1.84	2.07	10.8
Cc1ccc(NC(=O)CCC(=O)C(C#N)c2ccc(Cl)cc2)cc1C (stereo not given)	> 100	> 100	> 100	> 100	> 100	> 100		> 100	> 100	> 100										
